From PMC6697720, “Saturation of acyl chains converts cardiolipin from an antagonist to an activator of Toll-like receptor-4” (Cellular and Molecular Life Sciences: CMLS, 2019)

Molecular target: T1, murine TLR4, MD2, and CD14 (Mus musculus, UniProt Q9JHF9+Q9QUK6)
T1 construct: expressed in transfected cells; host or cells: HEK293 (ATCC CRL1573), transient transfection with jetPEI
T1 sequence (Q9QUK6 26-835): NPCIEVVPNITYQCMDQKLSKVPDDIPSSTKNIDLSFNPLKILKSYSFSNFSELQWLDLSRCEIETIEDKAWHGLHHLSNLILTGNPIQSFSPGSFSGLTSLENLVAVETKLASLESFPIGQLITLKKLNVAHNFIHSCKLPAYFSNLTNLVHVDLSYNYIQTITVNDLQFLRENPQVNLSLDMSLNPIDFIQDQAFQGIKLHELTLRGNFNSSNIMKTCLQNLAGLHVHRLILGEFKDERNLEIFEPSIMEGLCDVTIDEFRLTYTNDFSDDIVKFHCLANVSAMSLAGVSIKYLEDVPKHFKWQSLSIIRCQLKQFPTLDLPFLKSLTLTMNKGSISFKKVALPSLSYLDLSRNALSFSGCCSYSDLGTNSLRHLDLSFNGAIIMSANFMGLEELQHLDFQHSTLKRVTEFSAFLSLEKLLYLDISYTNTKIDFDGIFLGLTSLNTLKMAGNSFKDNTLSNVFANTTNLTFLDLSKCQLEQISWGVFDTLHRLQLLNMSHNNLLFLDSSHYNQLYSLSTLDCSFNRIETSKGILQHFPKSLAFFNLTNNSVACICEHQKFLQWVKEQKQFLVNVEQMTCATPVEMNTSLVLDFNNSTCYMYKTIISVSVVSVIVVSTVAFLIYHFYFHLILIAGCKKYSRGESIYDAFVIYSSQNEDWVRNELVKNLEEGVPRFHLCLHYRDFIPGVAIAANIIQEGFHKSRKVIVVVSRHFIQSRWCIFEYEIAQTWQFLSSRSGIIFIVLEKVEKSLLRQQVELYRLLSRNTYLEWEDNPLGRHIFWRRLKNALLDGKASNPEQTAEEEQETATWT
T1 sequence (Q9JHF9 19-160): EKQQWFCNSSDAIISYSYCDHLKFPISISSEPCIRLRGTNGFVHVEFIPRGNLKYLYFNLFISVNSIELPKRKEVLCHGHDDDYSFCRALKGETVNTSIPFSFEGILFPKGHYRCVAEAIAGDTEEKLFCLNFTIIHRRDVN
Experiment: NF-κB luciferase reporter activation by CLs in HEK293 cells transfected with murine TLR4, MD2 and CD14
Type: cell-based
Conditions: 6 h incubation
Protocol: Cells were seeded at 4 × 10^4 cells/mL in 96-well plates (200 μL/well) and transiently transfected 4 days later. Expression vectors containing an NF-κB transcription reporter vector-encoding firefly luciferase (10 ng/well pNF-κB-luc from Clontech), and a constitutively active reporter vector-encoding Renilla luciferase (5 ng/well phRG-TK; Promega), together with empty vector (pcDNA3.1 from Invitrogen Cat. N. V79020) and cDNA encoding human membrane CD14 (3 ng/well) and human or murine TLR4 and MD2 (3 ng/well) were mixed with jetPEI (Polyplus transfection Cat.N. 101-10N) and incubated with cells according to the manufacturer’s instructions.
After treatment supernatants were discarded, cells were washed with PBS and lysed with passive lysis buffer (Promega Cat.N. E1941). Luciferase and Renilla activity on cell lysates were quantified on a BioTek Synergy HT microplate reader using home-made luciferase reagent (20 mM Tricine, 2.67 mM MgSO4·7H2O, 0.265 mM (MgCO3)4Mg(OH)2·5H2O, 0.1 mM EDTA, 33.3 mM DTT, 530 μM ATP, 270 μM Acetyl Coenzyme A (Lithium salt), 470 μM luciferin (Biosynth), pH 7.8, diluted two times in water before use), or coelenterazine (Biosynth) dissolved in ethanol at 1 mg/mL and diluted 500 times in PBS before use as previously described. […]

SMILES: CCCCCCCCCCCCCC(=O)OC[C@H](COP(=O)(O)OCC(O)COP(=O)(O)OC[C@@H](COC(=O)CCCCCCCCCCCCC)OC(=O)CCCCCCCCCCCCC)OC(=O)CCCCCCCCCCCCC (stereo partly shown) [C14:0 CL]
- activation of murine TLR4 (NF-κB): agonist
